Measurements: patent publication US12643879B2, “Functionalized heterocyclic compounds as modulators of stimulator of interferon genes (STING)” (RYVU THERAPEUTICS S.A., priority 2019, dated 2026)

What was measured:
[1] = tested on: CT26 murine colon carcinoma allografts; experiment: In vivo anti-tumor efficacy in CT26 allografts; set-up: species or system female Balb/C mice; conditions: intravenously, once every fifth day on three occasions
Description: The efficacy of Example 4, Example 31 and Example 57 was evaluated in established CT26 murine colon carcinoma allografts in female Balb/C mice. Compounds were formulated in 5% ethanol with 10% Captisol in PBS and administered intravenously, once every fifth day on three occasions. The solution was prepared fresh prior to each administration. […] By the end of the study there was one complete response among animals treated at 10 mg/kg of Example 4. […] By the end of the study, on day 43, there was one complete response recorded in group treated at 20 mg/kg of Example 57.

human STING = human STING (Homo sapiens, UniProt Q86WV6); experiment: Fluorescence Thermal Shift assay (binding to STING); conditions: STING 0.1 mg/mL, SyproOrange, 25 to 99° C.
Method in brief: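 Human STING (0.1 mg/mL final) preincubated 20 min with compounds in 50 mM Hepes, 150 mM NaCl, pH 7.5, then SyproOrange added. Thermal unfolding 25–99 °C at 0.033 °C/s continuous ramp monitored by fluorescence.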

[2] = tested on: interferon regulatory factor (IRF) pathway in THP-1 dual cells; experiment: THP-1 Dual reporter assay, IRF pathway (luciferase); type: cell-based; conditions: Homo sapiens, THP1-Dual; 18 h stimulation, luminescence; read-out: THP1 Dual EC50 (μM) IRF
Method in brief: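 THP-1 dual reporter cells, 18 h STING agonist stimulation. IRF: medium + luciferase reagent, luminescence read immediately (ISG54/5×ISRE reporter).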

[3] = tested on: NF-κB pathway in THP-1 dual cells; experiment: THP-1 Dual reporter assay, NF-κB pathway (SEAP); type: cell-based; conditions: Homo sapiens, THP1-Dual; 18 h stimulation, absorbance at 630 or 655 nm; read-out: THP1 Dual EC50 (μM) NFkB
Method in brief: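 IRF output: ISRE-ISG54 luciferase in collected medium, luminescence measured immediately on reagent addition. NF-κB output: SEAP under NF-κB-element IFN-β promoter, detection medium 1 or 2 h at 37° C, absorbance 630 or 655 nm. Cells were stimulated with STING agonist for 18 h beforehand.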

Sequence of human STING (Q86WV6 whole entry H232R): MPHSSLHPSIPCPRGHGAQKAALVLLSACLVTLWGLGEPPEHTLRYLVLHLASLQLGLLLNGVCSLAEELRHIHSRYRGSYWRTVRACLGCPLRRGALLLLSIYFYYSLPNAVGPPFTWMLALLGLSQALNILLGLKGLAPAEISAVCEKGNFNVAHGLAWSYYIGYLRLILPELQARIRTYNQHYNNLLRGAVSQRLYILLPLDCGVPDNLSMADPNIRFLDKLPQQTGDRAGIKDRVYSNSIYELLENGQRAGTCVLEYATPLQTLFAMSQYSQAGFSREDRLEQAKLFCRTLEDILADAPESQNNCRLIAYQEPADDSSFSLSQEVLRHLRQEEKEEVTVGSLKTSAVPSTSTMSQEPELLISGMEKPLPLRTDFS

Row | SMILES | hSTING FTS binding assay (ΔT C. °) (human STING) | EC50 [2] [µM] | EC50 [3] [µM] | further results
1 | COc1cc(CN(Cc2cn(C3CC3)c3cc(F)c(F)cc3c2=O)[C@H]2CCCN(c3ccc(N)nc3)C2)ccn1.Cl [Example 4, 3-({[(3S)-1-(6-Aminopyridin-3-yl)piperidin-3-yl][(2-methoxypyridin-4-yl)methyl]amino}methyl)-1-cyclopropyl-6,7-difluoro-1,4-dihydroquinolin-4-one hydrochloride] | +++ (+++=ΔTm ≥20° C.) | < 1 | < 1 | anti-tumor efficacy (tumor growth vs control group) ([1]; 7 mg/kg): efficacious; anti-tumor efficacy (tumor growth vs control group) ([1]; 10 mg/kg): efficacious; complete responses by the end of the study ([1]; 10 mg/kg): one; response of CT26 tumors to treatment [1]: responded prominently
2 | COCCn1cc(CN(Cc2ccnc(C)c2)[C@H]2CCCN(c3ccc(N)nc3)C2)c(=O)c2ccccc21.Cl [Example 21, 3-({[(3S)-1-(6-aminopyridin-3-yl)piperidin-3-yl][(2-methylpyridin-4-yl)methyl]amino}methyl)-1-(2-methoxyethyl)-1,4-dihydroquinolin-4-one hydrochloride] | +++ (+++=ΔTm ≥20° C.) | < 1 | < 1 | –
3 | Cc1ccc(N2CCC[C@H](N(Cc3ccnc(C)c3)Cc3cn(C)c4cc(N5CCC(N)CC5)ccc4c3=O)C2)cn1.Cl [Example 6, 7-(4-Aminopiperidin-1-yl)-1-methyl-3-({[(3S)-1-(6-methylpyridin-3-yl)piperidin-3-yl][(2-methylpyridin-4-yl)methyl]amino}methyl)-1,4-dihydroquinolin-4-one hydrochloride] | ++ (++=10<ΔTm <20° C.) | 1 to 10 | 1 to 10 | –
4 | Cc1cc(CN(Cc2cn(C)c3cc(Br)ccc3c2=O)[C@H]2CCCN(c3ccc(N)nc3)C2)ccn1.Cl [Example 29, 3-({[(3S)-1-(6-aminopyridin-3-yl)piperidin-3-yl][(2-methylpyridin-4-yl)methyl]amino}methyl)-7-bromo-1-methyl-1,4-dihydroquinolin-4-one hydrochloride] | +++ (+++=ΔTm ≥20° C.) | < 1 | < 1 | –
5 | Cc1ccc(N2CCC[C@H](N(Cc3ccnc(C)c3)Cc3cn(C4CC4)c4cc(N)c(F)cc4c3=O)C2)cn1 [Example 7, 7-Amino-1-cyclopropyl-6-fluoro-3-({[(3S)-1-(6-methylpyridin-3-yl)piperidin-3-yl][(2-methylpyridin-4-yl)methyl]amino}methyl)-1,4-dihydroquinolin-4-one] | +++ (+++=ΔTm ≥20° C.) | < 1 | < 1 | –
6 | Cc1ccc(N2CCC[C@H](N(Cc3ccnc(C)c3)Cc3cn(C4CC4)c4cc(N5CCC6NCCC6C5)c(F)cc4c3=O)C2)cn1 (stereo partly drawn) [Example 68, 1-cyclopropyl-6-fluoro-3-({[(3S)-1-(6-methylpyridin-3-yl)piperidin-3-yl][(2-methylpyridin-4-yl)methyl]amino}methyl)-7-{octahydro-1H-pyrrolo[3,2-c]pyridin-5-yl}-1,4-dihydroquinolin-4-one] | +++ (+++=ΔTm ≥20° C.) | < 1 | < 1 | –
7 | Cc1cc(CN(Cc2cn(C3CC3)c3cc(N4CC[C@@H](O)C4)c(F)cc3c2=O)[C@H]2CCCN(c3cccnc3)C2)ccn1 [Example 78, 1-Cyclopropyl-6-fluoro-7-[(3R)-3-hydroxypyrrolidin-1-yl]-3-({[(2-methylpyridin-4-yl)methyl][(3S)-1-(pyridin-3-yl)piperidin-3-yl]amino}methyl)-1,4-dihydroquinolin-4-one] | +++ (+++=ΔTm ≥20° C.) | < 1 | < 1 | –

Continued, in another order:

Row | hSTING FTS binding assay (ΔT C. °) (human STING) | EC50 [2] [µM] | EC50 [3] [µM] | SMILES | further results
8 | +++ (+++=ΔTm ≥20° C.) | < 1 | < 1 | Cc1ccc(N2CCC[C@H](N(Cc3ccnc(C)c3)Cc3cn(C4CC4)c4cc(N5CCC[C@H](O)C5)c(F)cc4c3=O)C2)cn1.Cl [Example 31, 1-cyclopropyl-6-fluoro-7-[(3S)-3-hydroxypiperidin-1-yl]-3-({[(3S)-1-(6-methylpyridin-3-yl)piperidin-3-yl][(2-methylpyridin-4-yl)methyl]amino}methyl)-1,4-dihydroquinolin-4-one hydrochloride] | anti-tumor efficacy (tumor growth vs control group) ([1]; 7 mg/kg): slight tumor growth delay; anti-tumor efficacy (tumor growth vs control group) ([1]; 15 mg/kg): prominently efficacious; anti-tumor efficacy (tumor growth vs control group) ([1]; 30 mg/kg): prominently efficacious; complete responses by the end of the study ([1]; 30 mg/kg, day 43): two; response of CT26 tumors to treatment [1]: responded prominently
9 | +++ (+++=ΔTm ≥20° C.) | – | – | Cc1ccc(N2CCC[C@H](N(Cc3ccnc(C)c3)Cc3cn(C4CC4)c4cc(N5CC[C@H](N)C(F)(F)C5)c(F)cc4c3=O)C2)cn1.Cl (single isomer, unassigned) [Example 57] | anti-tumor efficacy (tumor growth vs control group) ([1]; 5 mg/kg): minimal tumor growth delay; anti-tumor efficacy (tumor growth vs control group) ([1]; 10 mg/kg): moderately efficacious; anti-tumor efficacy (tumor growth vs control group) ([1]; 20 mg/kg): full efficacious; complete responses by the end of the study ([1]; 20 mg/kg, day 43): one; response of CT26 tumors to treatment [1]: responded prominently
10 | +++ (+++=ΔTm ≥20° C.) | 1 to 10 | 1 to 10 | Cc1ccc(N2CCC[C@H](N(Cc3ccnc(C)c3)Cc3cn(C4CC4)c4cc(N5CCC(C(=O)O)CC5)c(F)cc4c3=O)C2)cn1 [Example 67, 1-[1-cyclopropyl-6-fluoro-3-({[(3S)-1-(6-methylpyridin-3-yl)piperidin-3-yl][(2-methylpyridin-4-yl)methyl]amino}methyl)-4-oxo-1,4-dihydroquinolin-7-yl]piperidine-4-carboxylic acid] | –
11 | +++ (+++=ΔTm ≥20° C.) | < 1 | < 1 | Cc1ccc(N2C[C@@H](F)C[C@H](N(Cc3ccnc(C)c3)Cc3cn(C4CC4)c4cc(OCCO)c(F)cc4c3=O)C2)cn1 [Example 75, 1-cyclopropyl-6-fluoro-3-({[(3S,5S)-5-fluoro-1-(6-methylpyridin-3-yl)piperidin-3-yl][(2-methylpyridin-4-yl)methyl]amino}methyl)-7-(2-hydroxyethoxy)-1,4-dihydroquinolin-4-one] | –
